Laboratory results reported in the NIST ThermoML archive (doi:10.1021/je401036f).

Test: refractive index (Na D-line) (dimensionless); xn = mol fraction of the nth substance listed
Conditions: 101 kPa, Liquid, Standard Abbe refractometry

CC(O)CN (stereo not given) [1-amino-2-propanol] + CCCCO
refractive index
Conditions | 288.15 K | 293.15 K | 298.15 K | 303.15 K | 308.15 K | 313.15 K | 318.15 K | 323.15 K | 328.15 K | 333.15 K
x1 = 0.1 | 1.4058 | 1.4038 | 1.4018 | 1.3998 | 1.3977 | 1.3956 | 1.3934 | 1.3913 | 1.3892 | 1.387
x1 = 0.2005 | 1.4104 | 1.4084 | 1.4064 | 1.4043 | 1.4022 | 1.4001 | 1.398 | 1.3958 | 1.3937 | 1.3915
x1 = 0.3 | 1.4151 | 1.413 | 1.411 | 1.4089 | 1.4068 | 1.4047 | 1.4026 | 1.4005 | 1.3983 | 1.3961
x1 = 0.3999 | 1.4198 | 1.4178 | 1.4157 | 1.4136 | 1.4115 | 1.4094 | 1.4073 | 1.4051 | 1.403 | 1.4008
x1 = 0.5 | 1.4246 | 1.4226 | 1.4205 | 1.4184 | 1.4163 | 1.4142 | 1.4121 | 1.4099 | 1.4078 | 1.4056
x1 = 0.6001 | 1.4295 | 1.4275 | 1.4254 | 1.4234 | 1.4213 | 1.4191 | 1.417 | 1.4149 | 1.4128 | 1.4106
x1 = 0.7 | 1.4345 | 1.4324 | 1.4304 | 1.4283 | 1.4262 | 1.4242 | 1.4221 | 1.42 | 1.4178 | 1.4156
x1 = 0.8 | 1.4395 | 1.4375 | 1.4354 | 1.4334 | 1.4313 | 1.4292 | 1.4272 | 1.425 | 1.4229 | 1.4208
x1 = 0.8997 | 1.4446 | 1.4426 | 1.4406 | 1.4385 | 1.4365 | 1.4344 | 1.4324 | 1.4303 | 1.4282 | 1.426
x1 = 1 | 1.45 | 1.448 | 1.446 | 1.444 | 1.4419 | 1.4399 | 1.4378 | 1.4358 | 1.4337 | 1.4315

CC(O)CN (stereo not given) [1-amino-2-propanol] + CCC(C)O
refractive index
Conditions | 288.15 K | 293.15 K | 298.15 K | 303.15 K | 308.15 K | 313.15 K | 318.15 K | 323.15 K | 328.15 K | 333.15 K
x1 = 0.1003 | 1.4039 | 1.4018 | 1.3996 | 1.3974 | 1.3952 | 1.3929 | 1.3905 | 1.3881 | 1.3857 | 1.3832
x1 = 0.2005 | 1.4082 | 1.4062 | 1.404 | 1.4019 | 1.3996 | 1.3974 | 1.3951 | 1.3928 | 1.3905 | 1.3881
x1 = 0.3 | 1.4128 | 1.4107 | 1.4086 | 1.4065 | 1.4043 | 1.4021 | 1.3999 | 1.3977 | 1.3955 | 1.3932
x1 = 0.3999 | 1.4177 | 1.4156 | 1.4135 | 1.4114 | 1.4093 | 1.4071 | 1.4049 | 1.4028 | 1.4006 | 1.3983
x1 = 0.5 | 1.4228 | 1.4207 | 1.4186 | 1.4165 | 1.4144 | 1.4123 | 1.4102 | 1.408 | 1.4059 | 1.4036
x1 = 0.6001 | 1.428 | 1.4259 | 1.4239 | 1.4218 | 1.4197 | 1.4176 | 1.4154 | 1.4133 | 1.4112 | 1.409
x1 = 0.7 | 1.4332 | 1.4312 | 1.4292 | 1.4271 | 1.425 | 1.4229 | 1.4208 | 1.4187 | 1.4166 | 1.4144
x1 = 0.8 | 1.4386 | 1.4366 | 1.4345 | 1.4325 | 1.4304 | 1.4284 | 1.4263 | 1.4242 | 1.4221 | 1.42
x1 = 0.8999 | 1.4442 | 1.4422 | 1.4402 | 1.4382 | 1.4362 | 1.4342 | 1.4322 | 1.4302 | 1.4281 | 1.426
x1 = 1 | 1.45 | 1.448 | 1.446 | 1.444 | 1.4419 | 1.4399 | 1.4378 | 1.4358 | 1.4337 | 1.4315
